Tests used:
Test in all cases: relative viability (nuclei count vs DMSO), 5 days (fraction); higher = more cells survive
RU-SKI 43 + Luminespib = compound: CC[C@@H](C)CNCC(=O)N1CCC2=C([C@@H]1COC3=CC=CC(=C3)C)C=CS2 [RU-SKI 43] + CCNC(=O)c1noc(-c2cc(C(C)C)c(O)cc2O)c1-c1ccc(CN2CCOCC2)cc1 [Luminespib] (partner 0.01 µM)
In short: (§1)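 Lung cancer cell lines were pin-tool dosed in 1536-well plates on the day after seeding, with either a lone drug or a fixed anchor-drug dose plus five library-drug doses (not always all listed) in √10 steps. Nuclei were counted on 4× images after 5 days. Relative viability is the ratio of treated-well to vehicle-well nuclei counts, with each value a median of duplicate plates.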

RU-SKI 43 + Lapatinib = compound: CC[C@@H](C)CNCC(=O)N1CCC2=C([C@@H]1COC3=CC=CC(=C3)C)C=CS2 [RU-SKI 43] + CS(=O)(=O)CCNCc1ccc(-c2ccc3ncnc(Nc4ccc(OCc5cccc(F)c5)c(Cl)c4)c3c2)o1 [Lapatinib] (partner 2 µM)
In short: as §1

MK-8033 + Pictilisib = compound: Cn1cc(-c2cnc3ccc4ccc(CS(=O)(=O)NCc5ccccn5)cc4c(=O)c3c2)cn1 [MK-8033] + CS(=O)(=O)N1CCN(Cc2cc3nc(-c4cccc5[nH]ncc45)nc(N4CCOCC4)c3s2)CC1 [Pictilisib] (partner 1 µM)
In short: as §1

RU-SKI 43 + AZD7762 = compound: CC[C@@H](C)CNCC(=O)N1CCC2=C([C@@H]1COC3=CC=CC(=C3)C)C=CS2 [RU-SKI 43] + NC(=O)Nc1cc(-c2cccc(F)c2)sc1C(=O)N[C@H]1CCCNC1 [AZD7762] (partner 0.2 µM)
In short: as §1

Cell Line | relative viability (RU-SKI 43 + Luminespib; first compound 0.1 µM) | relative viability (RU-SKI 43 + Luminespib; first compound 0.3162 µM) | relative viability (RU-SKI 43 + Luminespib; first compound 1 µM) | relative viability (RU-SKI 43 + Luminespib; first compound 3.162 µM) | relative viability (RU-SKI 43 + Luminespib; first compound 10 µM) | relative viability (RU-SKI 43 + Lapatinib; first compound 0.1 µM) | relative viability (RU-SKI 43 + Lapatinib; first compound 0.3162 µM) | relative viability (RU-SKI 43 + Lapatinib; first compound 1 µM) | relative viability (RU-SKI 43 + Lapatinib; first compound 3.162 µM) | relative viability (RU-SKI 43 + Lapatinib; first compound 10 µM) | relative viability (MK-8033 + Pictilisib; first compound 0.02 µM) | relative viability (MK-8033 + Pictilisib; first compound 0.06325 µM) | relative viability (MK-8033 + Pictilisib; first compound 0.2 µM) | relative viability (MK-8033 + Pictilisib; first compound 0.6325 µM) | relative viability (MK-8033 + Pictilisib; first compound 2 µM) | relative viability (RU-SKI 43 + AZD7762; first compound 0.1 µM) | relative viability (RU-SKI 43 + AZD7762; first compound 0.3162 µM) | relative viability (RU-SKI 43 + AZD7762; first compound 1 µM) | relative viability (RU-SKI 43 + AZD7762; first compound 3.162 µM) | relative viability (RU-SKI 43 + AZD7762; first compound 10 µM)
NCI-H1623 | 0.452 | 0.478 | 0.468 | 0.577 | 0.447 |  |  |  |  |  |  |  |  |  |  |  |  |  |  | 
NCI-H520 | 0.191 | 0.18 | 0.257 | 0.209 | 0.216 | 0.897 | 0.986 | 0.996 | 0.951 | 0.756 | 0.28 | 0.221 | 0.295 | 0.283 | 0.323 |  |  |  |  | 
IA-LM |  |  |  |  |  | 0.717 | 0.956 | 1.02 | 0.79 | 0.731 | 0.356 | 0.273 | 0.293 | 0.286 | 0.289 |  |  |  |  | 
NCI-H2228 | 0.178 | 0.15 | 0.177 | 0.149 | 0.199 | 1.05 | 1.3 | 1.45 | 1.29 | 0.891 | 0.397 | 0.599 | 0.356 | 0.336 | 0.357 |  |  |  |  | 
NCI-H1648 |  |  |  |  |  |  |  |  |  |  |  |  |  |  |  | 0.502 | 0.626 | 0.656 | 0.694 | 0.628
ChaGo-K-1 | 0.661 | 0.566 | 0.723 | 0.645 | 0.516 |  |  |  |  |  | 0.717 | 0.652 | 0.654 | 0.713 | 0.615 | 0.877 | 1.04 | 0.836 | 0.921 | 0.801
NCI-H1299 |  |  |  |  |  | 0.965 | 1.03 | 1.05 | 0.941 | 0.95 | 0.759 | 0.862 | 0.748 | 0.799 | 0.617 |  |  |  |  | 
COR-L23 | 0.547 | 0.573 | 0.93 | 0.869 | 0.614 | 0.982 | 0.845 | 1.3 | 1.04 | 0.996 | 0.8 | 0.731 | 0.697 | 0.876 | 0.823 |  |  |  |  | 
COR-L 105 | 0.871 | 0.837 | 0.643 | 0.772 | 0.686 | 0.411 | 0.344 | 0.379 | 0.376 | 0.351 | 0.413 | 0.357 | 0.366 | 0.424 | 0.403 |  |  |  |  | 
NCI-H2009 | 0.981 | 1.12 | 0.984 | 1.02 | 1.03 | 0.899 | 0.837 | 0.901 | 0.964 | 0.905 | 0.833 | 0.716 | 0.732 | 0.775 | 0.771 |  |  |  |  | 
HCC-366 |  |  |  |  |  | 1.03 | 1.33 | 1.21 | 1.15 | 1.05 | 0.151 | 0.0933 | 0.228 | 0.138 | 0.142 | 0.268 | 0.252 | 0.321 | 0.34 | 0.216
NCI-H1703 |  |  |  |  |  |  | 1.86 | 1.11 | 1.16 | 0.637 | 0.238 | 0.244 | 0.255 | 0.223 | 0.248 | 0.177 | 0.137 | 0.134 | 0.11 | 0.12
NCI-H2023 | 0.919 | 1 | 0.887 | 0.856 | 0.876 | 0.773 | 0.808 | 1.05 | 0.849 | 0.726 | 0.264 | 0.194 | 0.186 | 0.219 | 0.179 |  |  |  |  | 
NCI-H2342 | 0.686 | 0.667 | 0.713 | 0.62 | 0.617 |  |  |  |  |  |  |  |  |  |  | 0.474 |  | 0.564 | 0.468 | 0.477
NCI-H522 | 1.28 | 1.14 | 1.14 | 1.05 | 1.17 |  |  |  |  |  |  |  |  |  |  | 0.918 | 0.984 | 1.04 | 0.859 | 0.853
Calu-6 |  |  |  |  |  | 1.28 | 1.43 | 1.08 | 1.1 | 0.982 | 0.947 | 0.766 | 0.899 | 0.85 | 0.975 |  |  |  |  | 
SK-LU-1 | 0.225 | 0.215 | 0.202 | 0.227 | 0.215 | 0.849 | 1.02 | 0.931 | 0.834 | 0.929 | 0.658 | 0.499 | 0.449 | 0.54 | 0.622 |  |  |  |  | 
SW 1573 | 0.223 | 0.203 | 0.246 | 0.154 | 0.308 | 1.27 | 1.11 | 1.07 | 1.11 | 1.16 | 0.55 | 0.414 | 0.462 | 0.463 | 0.42 |  |  |  |  | 
NCI-H441 | 0.285 | 0.324 | 0.436 | 0.316 | 0.375 |  |  |  |  |  | 0.45 | 0.446 | 0.416 | 0.446 | 0.444 | 0.795 | 1.55 | 1.23 | 1.22 | 1.17
NCI-H661 | 0.942 | 1.03 | 0.947 | 0.932 | 0.898 | 0.465 | 0.525 | 0.511 | 0.434 | 0.421 | 0.447 |  | 0.394 | 0.454 | 0.423 |  |  |  |  | 

— the supplement of paper PMC10307832
